The source of these data is PubChem BioAssay AID192 (DTP/NCI, 2004).

The assay concerns BDF1 mice, B16 melanoma ip, median survival T/C. Kind of assay: NCI In Vivo Anticancer Drug Screen. Data for tumor model B16 Melanoma (intraperitoneal) in B6D2F1 (BDF1) mice. The settings on record: endpoint: median survival time, higher = longer survival. Put shortly:
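Mice with transplantable tumors; drug vs vehicle groups; endpoint survival or tumor size; value = T/C.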

[1] abbreviates: dose: 2.5 mg/kg/injection, schedule: Q01DX009 (ip), vehicle: saline with Tween-80.
Setting [2] is: dose: 100.0 mg/kg/injection, schedule: Q01DX009 (ip), vehicle: Klucel (hydroxypropylcellulose) (HPC).
Setting [3] is: dose: 25.0 mg/kg/injection, schedule: Q01DX009 (ip), vehicle: saline.

Each structure is given as a SMILES string. Where “and” joins values, the source holds several entries; their conditions need not be identical. Equal values may be shown once. Toxic doses and inconclusive results are not listed.

In the case of `CC1OC(=O)C(C(C)C)NC(=O)C(C(C)C)OC(=O)C(C(C)C)NC(=O)C(C)OC(=O)C(C(C)C)NC(=O)C(C(C)C)OC(=O)C(C(C)C)NC(=O)C(C)OC(=O)C(C(C)C)NC(=O)C(C(C)C)OC(=O)C(C(C)C)NC1=O` (configuration not stated), the T/C by setting is: (dose: 0.04 mg/kg/injection, schedule: Q01DX009 (ip), vehicle: saline with Tween-80) 101 % of control; (dose: 0.08 mg/kg/injection, schedule: Q01DX009 (ip), vehicle: saline with Tween-80) 106 % of control; (dose: 0.16 mg/kg/injection, schedule: Q01DX009 (ip), vehicle: saline with Tween-80) 117 % of control; (dose: 0.2 mg/kg/injection, schedule: Q01DX009 (ip), vehicle: DMSO) 117 % of control; (dose: 0.31 mg/kg/injection, schedule: Q01DX009 (ip), vehicle: saline with Tween-80) 152 % of control; (dose: 0.4 mg/kg/injection, schedule: Q01DX009 (ip), vehicle: DMSO) 176 % of control. Besides, the T/C was 106 % of control (dose: 0.75 mg/kg/injection, schedule: Q01DX009 (ip), vehicle: Klucel (hydroxypropylcellulose) (HPC)); 101 % of control (dose: 0.75 mg/kg/injection, schedule: Q01DX009 (oral), vehicle: Klucel (hydroxypropylcellulose) (HPC)); 101 % of control (dose: 1.5 mg/kg/injection, schedule: Q01DX009 (ip), vehicle: Klucel (hydroxypropylcellulose) (HPC)); 104 % of control (dose: 1.5 mg/kg/injection, schedule: Q01DX009 (oral), vehicle: Klucel (hydroxypropylcellulose) (HPC)); 153 % of control under setting [1]; 105 % of control (dose: 3.0 mg/kg/injection, schedule: Q01DX009 (oral), vehicle: Klucel (hydroxypropylcellulose) (HPC)). In addition, the T/C runs as follows: (dose: 5.0 mg/kg/injection, schedule: Q01DX009 (ip), vehicle: saline with Tween-80) 183 % of control; (dose: 5.0 mg/kg/injection, schedule: Q01DX009 (oral), vehicle: saline with Tween-80) 105 % of control; (dose: 6.0 mg/kg/injection, schedule: Q01DX009 (ip), vehicle: saline with Tween-80) 165 % of control; (dose: 6.0 mg/kg/injection, schedule: Q01DX009 (oral), vehicle: Klucel (hydroxypropylcellulose) (HPC)) 107 % of control; (dose: 10.0 mg/kg/injection, schedule: Q01DX009 (ip), vehicle: saline with Tween-80) 171 % of control; (dose: 10.0 mg/kg/injection, schedule: Q01DX009 (oral), vehicle: saline with Tween-80) 116 % of control. For the same compound, the T/C is, setting by setting: (dose: 12.0 mg/kg/injection, schedule: Q01DX009 (oral), vehicle: Klucel (hydroxypropylcellulose) (HPC)) 100 % of control; (dose: 20.0 mg/kg/injection, schedule: Q01DX009 (ip), vehicle: saline with Tween-80) 94 % of control; (dose: 20.0 mg/kg/injection, schedule: Q01DX009 (oral), vehicle: saline with Tween-80) 116 % of control; (dose: 24.0 mg/kg/injection, schedule: Q01DX009 (oral), vehicle: Klucel (hydroxypropylcellulose) (HPC)) 94 % of control; (dose: 40.0 mg/kg/injection, schedule: Q01DX009 (oral), vehicle: saline with Tween-80) 109 % of control.
In the case of `CC1CN=C(c2ccc(NC(=O)c3ccc(C(=O)Nc4ccc(C5=NCC(C)N5)cc4)cc3)cc2)N1` (configuration not stated), the T/C (dose: 12.5 mg/kg/injection, schedule: Q01DX009 (ip), vehicle: Klucel (hydroxypropylcellulose) (HPC)) was 118 % of control and the T/C (dose: 25.0 mg/kg/injection, schedule: Q01DX009 (ip), vehicle: Klucel (hydroxypropylcellulose) (HPC)) was 107 % of control.
On to `NC(=O)/C=C/C(=O)c1c(Cl)cccc1Cl`, for which the T/C runs as follows: (dose: 0.78 mg/kg/injection, schedule: Q01DX009 (ip), vehicle: saline with Tween-80) 103 % of control; (dose: 1.56 mg/kg/injection, schedule: Q01DX009 (ip), vehicle: saline with Tween-80) 106 % of control; (dose: 3.12 mg/kg/injection, schedule: Q01DX009 (ip), vehicle: saline with Tween-80) 112 % of control.
For `CCN(CCCCO)CCc1c[nH]c2ccc(OC)cc12`, the T/C is 105 % of control (dose: 9.3 mg/kg/injection, schedule: Q01DX009 (ip), vehicle: saline); 90 % of control (dose: 18.75 mg/kg/injection, schedule: Q01DX009 (ip), vehicle: saline); 97 % of control (dose: 37.5 mg/kg/injection, schedule: Q01DX009 (ip), vehicle: saline); 110 % of control (dose: 75.0 mg/kg/injection, schedule: Q01DX009 (ip), vehicle: saline).
As to `Cc1ccc(C)c(NS(=O)(=O)c2ccc(Cl)cc2)c1`, the T/C by setting is: under setting [2], 93 % of control; (dose: 200.0 mg/kg/injection, schedule: Q01DX009 (ip), vehicle: Klucel (hydroxypropylcellulose) (HPC)) 92 % of control.
Turning to `O=C(CCN1CC1)Nc1ccc(NC(=O)CCN2CC2)cc1`, the T/C was 170 % of control (dose: 5.0 mg/kg/injection, schedule: Q04DX003 (ip), vehicle: Klucel (hydroxypropylcellulose) (HPC)); 173 % of control and 184 % of control (dose: 10.0 mg/kg/injection, schedule: Q04DX003 (ip), vehicle: Klucel (hydroxypropylcellulose) (HPC)); 160 % of control and 175 % of control (dose: 20.0 mg/kg/injection, schedule: Q04DX003 (ip), vehicle: Klucel (hydroxypropylcellulose) (HPC)); 105 % of control (dose: 40.0 mg/kg/injection, schedule: Q04DX003 (ip), vehicle: Klucel (hydroxypropylcellulose) (HPC)).
As for `CC(=O)Nc1cc(F)c([N+](=O)[O-])cc1[N+](=O)[O-]`, the T/C runs as follows: (dose: 0.63 mg/kg/injection, schedule: Q01DX009 (ip), vehicle: saline with Tween-80) 104 % of control; (dose: 1.25 mg/kg/injection, schedule: Q01DX009 (ip), vehicle: saline with Tween-80) 90 % of control; under setting [1], 104 % of control.
As for `CC(CCc1ccccc1)NN` (configuration not stated), the T/C is, setting by setting: (dose: 3.12 mg/kg/injection, schedule: Q01DX009 (ip), vehicle: saline) 122 % of control; (dose: 6.25 mg/kg/injection, schedule: Q01DX009 (ip), vehicle: saline) 112 % of control and 116 % of control; (dose: 12.5 mg/kg/injection, schedule: Q01DX009 (ip), vehicle: saline) 113 % of control; under setting [3], 103 % of control and 112 % of control.
On to `COC1C(O)CC(OC2CC(OC3CC(O[C@@H]4C(=O)c5c(cc6cc(OC7CC(OC8CC(O)C(O)C(C)O8)C(O)C(C)O7)c(C)c(O)c6c5O)C[C@H]4[C@H](OC)C(=O)[C@@H](O)[C@@H](C)O)OC(C)C3O)OC(C)C2O)OC1C` (some centres not stated), for which the T/C (dose: 188.0 micrograms/kg/injection, schedule: Q01DX009 (ip), vehicle: water) was 106 % of control; the T/C (dose: 375.0 micrograms/kg/injection, schedule: Q01DX009 (ip), vehicle: water) was 105 % of control; the T/C (dose: 750.0 micrograms/kg/injection, schedule: Q01DX009 (ip), vehicle: water) is 121 % of control.
On to `C1CC[N-]CC1.CC(=N\O)/C(C)=N/O.CC(=N\O)/C(C)=N/O.[CH-]1CCCCC1.[Co+2]`, for which the T/C was 97 % of control (dose: 50.0 mg/kg/injection, schedule: Q01DX009 (ip), vehicle: Klucel (hydroxypropylcellulose) (HPC)) and 94 % of control under setting [2].
Regarding `C1CCN(CCC2CCCCN2)CC1` (configuration not stated), the T/C runs as follows: under setting [3], 106 % of control; (dose: 50.0 mg/kg/injection, schedule: Q01DX009 (ip), vehicle: saline) 100 % of control.
As to `COc1cc2c(c(OC)c1OC)-c1ccc(OC)c(=O)cc1C(NC(=O)COc1ccccc1)CC2` (configuration not stated), the T/C by setting is: (dose: 1.25 mg/kg/injection, schedule: Q01DX009 (ip), vehicle: Klucel (hydroxypropylcellulose) (HPC)) 175 % of control; (dose: 2.5 mg/kg/injection, schedule: Q01DX009 (ip), vehicle: Klucel (hydroxypropylcellulose) (HPC)) 188 % of control.
Take `CCOc1ncc([N+](=O)[O-])c(OCC)n1`: the T/C by setting is: (dose: 50.0 mg/kg/injection, schedule: Q01DX009 (ip), vehicle: saline with Tween-80) 104 % of control; (dose: 100.0 mg/kg/injection, schedule: Q01DX009 (ip), vehicle: saline with Tween-80) 100 % of control; (dose: 400.0 mg/kg/injection, schedule: Q01DX009 (ip), vehicle: saline with Tween-80) 95 % of control.
`CC1NC(=O)C2Cc3ccc(O)c(c3)Oc3ccc(cc3)C(O)C(C(=O)N2C)N(C)C(=O)C(C)NC(=O)C(Cc2ccc(O)cc2)N(C)C(=O)C(C)NC1=O` (configuration not stated): the T/C (dose: 1.0 mg/kg/injection, schedule: Q01DX009 (ip), vehicle: saline with Tween-80) is 97 % of control; the T/C (dose: 2.0 mg/kg/injection, schedule: Q01DX009 (ip), vehicle: saline with Tween-80) is 91 % of control; the T/C (dose: 4.0 mg/kg/injection, schedule: Q01DX009 (ip), vehicle: saline with Tween-80) was 99 % of control; the T/C (dose: 8.0 mg/kg/injection, schedule: Q01DX009 (ip), vehicle: saline with Tween-80) is 96 % of control; the T/C (dose: 16.0 mg/kg/injection, schedule: Q01DX009 (ip), vehicle: saline with Tween-80) is 94 % of control.
